According to article PMC3274447, “Fermentation, Isolation, Structure, and antidiabetic activity of NFAT-133 produced by Streptomyces strain PM0324667” (AMB Express, 2011):
Several values for one entry are separate records, joined by “and”; a condition that tells them apart may be missing. Equal values may be shown once. Read-outs that look alike come from different tables or passages of the source. Values belong to the compound of their own block, whether it stands above or below them.

Columns and labels:
[1] = system: L6 rat skeletal muscle cells; test: Glucose uptake (14C-2-deoxyglucose) in insulin-sensitized differentiated L6 myotubes; format: cell-based; details: for EC50: Rattus norvegicus, differentiated L6 myotubes in presence of insulin
Experimental: The metabolite extract library samples were screened for the ability to induce glucose uptake in insulin stimulated differentiated L6 myotubes. The L6 rat skeletal muscle cells were seeded into 96 well cell culture plates in complete medium (α-MEM + 10% fetal bovine serum + 1% penicillin-streptomycin solution) and maintained at 5% carbon dioxide (CO2) atmosphere. After 48 h, the medium was switched to α-MEM with 2% (v/v) fetal bovine serum (FBS) in order to initiate differentiation. Media change was ensured every 48 h. Compound treatment was conducted once the myoblasts differentiated to form myotubes. The differentiated and fused myotubes were starved in serum free α-MEM for 4 h, treated with samples and further incubated for 24 h. Following treatment and incubation, the cells were sensitized with insulin (200 nM) and incubated for 25 minutes. Radioactive glucose pulsing was done at 0.06 μCi/ml for 10 minutes. The reaction was terminated with cold KRPH buffer. The cell-associated radioactivity was determined by lysing the cells with Microscint PS™ followed by liquid scintillation counting ([Huang et al. 2002]). The assay was performed in triplicate.
For all experiments, the L6 myoblasts obtained from ATCC were used only up to passage seven and were utilized within two months post revival of a new vial.

[2] = target: T1, human PPAR-γ (Homo sapiens, UniProt P37231); test: PPAR-γ luciferase assay in transfected CV1 cells; format: cell-based; details: for % hPPAR-γ activation: relative to 1 μM rosiglitazone = 100%, n = 3
T1 construct: expressed in transfected cells; host or cells: CV1 cells, transient transfection with lipofectamine
T1 sequence (P37231 1-505): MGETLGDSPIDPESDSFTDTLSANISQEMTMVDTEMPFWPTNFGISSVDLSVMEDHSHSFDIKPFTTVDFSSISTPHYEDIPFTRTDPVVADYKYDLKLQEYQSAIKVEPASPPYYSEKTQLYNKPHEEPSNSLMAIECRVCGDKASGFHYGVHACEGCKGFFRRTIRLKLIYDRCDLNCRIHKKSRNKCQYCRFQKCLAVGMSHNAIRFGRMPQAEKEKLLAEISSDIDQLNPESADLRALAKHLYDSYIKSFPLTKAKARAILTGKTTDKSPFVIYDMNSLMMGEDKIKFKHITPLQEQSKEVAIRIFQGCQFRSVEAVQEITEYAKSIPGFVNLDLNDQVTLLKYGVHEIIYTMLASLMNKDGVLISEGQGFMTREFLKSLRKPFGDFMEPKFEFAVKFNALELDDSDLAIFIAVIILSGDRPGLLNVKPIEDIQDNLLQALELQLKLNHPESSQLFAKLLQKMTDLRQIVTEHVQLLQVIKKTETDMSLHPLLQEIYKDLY
Experimental: PPAR-γ activation is one of the key mechanisms involved in glucose uptake. […] CV1 cells were seeded onto 24 well plates and transient transfections were conducted after over-night incubation using lipofectamine (Invitrogen, CA, USA). Five hours after transfection, the cells were treated with each compound concentration for an additional 24 h, and the luciferase assay (Promega) was performed according to the manufacture's protocol. Luminescence was measured using the Safire2 reader. […] The entire assay was performed in triplicates.

[3] = Pharmacokinetic profile in female db/db mice; format: in vivo; details: for AUC(0-t) / Cmax / Tmax / half-life / AUC(0-inf): mouse, plasma; for AUC(0-inf): read-out: AUC 0-infinity
Description: Similarly, troglitazone a PPAR-γ […] agonist increases glucose uptake by inducing GLUT4 translocation in L6 skeletal muscles ([Lessard et al. 2006]; [Yonemitsu et al. 2001]). However, these compounds are PPAR-γ agonists, and have several side-effects that cause increased body weight and hepaptoxicity on chronic exposure. […] Prior to planning an efficacy study we determined the pharmacokinetic profile of NFAT-133 (Figure 5, Table 4) using female db/db mice with n = 4 per time point. […] But, since the compound appeared to have a novel mechanism of action, we decided to explore its in vivo efficacy potential by attempting the intraperitoneal route of administration. NFAT-133 administered by the intraperitoneal route achieved plasma concentrations higher than the in vitro EC50 in skeletal muscles.
Figure 5 Pharmacokinetic data of NFAT-133 by oral (A) and intraperitoneal (B) absorption in female db/db mice at 30 mg/kg.

[4] = system: db/db mice; test: In vivo activity in male db/db mice, 10 days b.i.d.
Experimental: Male db/db mice (7-9 weeks of age) were housed in individually ventilated cages at room temperature of 22°C ± 2°C, humidity at 55 ± 5%, with a 12:12-h light: dark cycle and throughout the study period had access to water and standard chow ad libitum. The guidelines of the Committee for the Purpose of Control and Supervision of Experiments on Animals, Government of India, were followed and the in-house animal ethics committee approved all experimental procedures.
Male db/db mice were divided into three groups of 10 animals each with similar body weight and plasma glucose (mean ± S.E.M.) levels. […] Body weight was measured daily. On day 10, one hour after the last dose, mice were fasted for four hours so as to minimize the variability between the animals. Blood was collected from the fasted mice, plasma was separated by centrifugation (6000 g at 4°C for 7 minutes) and glucose was estimated using a biochemistry auto analyzer (Hitachi Science Systems Limited, Ibaraki, Japan). A small aliquot of separated plasma was stored at -20°C for estimation of insulin using an ELISA assay kit (Linco Research). Immediately after blood sample collection, mice were sacrificed, livers excised and weighed. The data was reproducible in two independent experiments.
All the results are expressed as Mean ± S.E.M. Statistical analysis was done using GraphPad Prism 4 (version 4.03, GraphPad Software, Inc., CA, USA). For comparison between means of more than two groups one-way analysis of variance (ANOVA) followed by Dunnett's post-hoc analysis was employed.

[5] = system: transcription factor - NFAT; design: method as in Burres et al.1995; details: Jurkat T-cells; ref Burres et al.1995; cited from earlier work
[6] = system: splenocytes derived from Balb/c and C57BL/6 mice; design: method as in Burres et al.1995; details: splenocytes from Balb/c and C57BL/6 mice in vitro; ref Burres et al.1995; cited from earlier work
[7] = 100 mg/kg i.p. b.i.d. 10 days, P < 0.001 vs. vehicle

% hPPAR-γ activation ([2]; 30 μM): 0.2%
% hPPAR-γ activation ([2]; 100 μM): 9.0%
PPAR-γ activity ([2]; concentrations as high as 100 μM): does not induce PPAR-γ activity
oral bioavailability [3]: poor oral bioavailability
AUC(0-t) ([3]; 30 mg/kg IP): 3220 ng·h/mL
Cmax ([3]; 30 mg/kg IP): 11700 ng/mL and 42.2 µM
Tmax ([3]; 30 mg/kg IP): 4.8 min
half-life ([3]; 30 mg/kg IP): 112 min
AUC(0-inf) ([3]; 30 mg/kg IP): 3550 ng·h/mL
AUC(0-t) ([3]; 30 mg/kg oral): 630 ng·h/mL
Cmax ([3]; 30 mg/kg oral): 3410 ng/mL and 12.3 µM
Tmax ([3]; 30 mg/kg oral): 4.8 min
half-life ([3]; 30 mg/kg oral): 9.6 min
AUC(0-inf) ([3]; 30 mg/kg oral): 650 ng·h/mL
liver weight ([4]; 100 mg/kg ip b.i.d. 10 days): 2.0 ± 0.1 g
liver weight ([4]; 100 mg/kg ip b.i.d. 10 days, Mean ± S.E.M., n = 10, the values are: liver weight): 2 ± 0.1 g
SMILES: CC(=O)C(C)C(O)C(C)c1ccc(C)cc1/C=C\CO (stereo not shown) [NFAT-133]
EC50 [1]: 6.3 ± 1.8 µM
plasma glucose levels as compared to vehicle treated animals [4, 7]: significant reduction
plasma insulin levels as compared to vehicle treated animals [4, 7]: significant reduction
% Change in body weight ([4]; 100 mg/kg ip b.i.d. 10 days, Mean ± S.E.M., n = 10): -1.08 ± 1.21% and -1.1 ± 1.2 %
activation of the transcription factor NFAT [5]: inhibit the activation
proliferation of splenocytes [6]: block proliferation

liver weight ([4]; 5 mg/kg po b.i.d. 10 days): 2.7 ± 0.1 g
liver weight ([4]; 5 mg/kg po b.i.d. 10 days, Mean ± S.E.M., n = 10, the values are: liver weight): 2.6 ± 0.1 g
SMILES: CN(CCOc1ccc(CC2SC(=O)NC2=O)cc1)c1ccccn1 (stereo not shown) [Rosiglitazone, rosiglitazone, reference compound]
Inference (glucose uptake activity) ([1]; 4 μg/ml): Active
EC50 [1]: 6.9 ± 1.8 µM
% Change in body weight ([4]; 5 mg/kg po b.i.d. 10 days, Mean ± S.E.M., n = 10): 14.6 ± 0.8 %
% Change in body weight ([4]; 5 mg/kg po b.i.d. 10 days, Mean ± S.E.M., n = 10, listed as rosiglitazone): 14.63 ± 0.85%
